Test results reported in ChEMBL document CHEMBL1127110, “Novel polyamide inducers of HL-60 cellular differentiation” (Bioorg Med Chem Lett, 1993).

Tested on: HL-60
Assay: The compound was evaluated in vitro for cytotoxicity against HL-60 cell lines
Assay type: functional, cell-based
Conditions: Homo sapiens

Structure (SMILES)	IC50 [mM]
CC(=O)NCCCCCCNC(C)=O [HEXAMETHYLENEBISACETAMIDE]	4
CC(=O)NCCCCN(CCCNC(C)=O)C(C)=O	> 16
CC(=O)NCCCN(CCCCN(CCCNC(C)=O)C(C)=O)C(C)=O	> 16
CC(=O)NCCNC(=O)CCNC(C)=O	> 16
CC(=O)NCCC(=O)NCCNC(=O)CCNC(C)=O	6
